Experimental data published in patent US12435059B2, “AMP-activated protein kinase inhibitors and methods of making and using the same” (The Regents of the University of Colorado, priority 2019, dated 2025).
Like-named read-outs stand apart in the source and are kept apart here.

Assays:
Assay in all cases: biochemical
Assay type in all cases: binding
468 kinases [1] = biological target: 468 kinases (Homo sapiens, UniProt O00238); settings: BMPR1B; read-out: % Inhibition @ 100 nM
468 kinases [2] = biological target: 468 kinases (Homo sapiens, UniProt O14730); settings: RIOK3; read-out: % Inhibition @ 100 nM
468 kinases [3] = biological target: 468 kinases (Homo sapiens, UniProt O15075); settings: DCAMKL1; read-out: % Inhibition @ 100 nM
468 kinases [4] = biological target: 468 kinases (Homo sapiens, UniProt O15111); settings: IKK-alpha; read-out: % Inhibition @ 100 nM
468 kinases [5] = biological target: 468 kinases (Homo sapiens, UniProt O96017); settings: CHEK2; read-out: % Inhibition @ 100 nM
468 kinases [6] = biological target: 468 kinases (Homo sapiens, UniProt P00519, F317I); settings: read-out: % Inhibition @ 100 nM
468 kinases [7] = biological target: 468 kinases (Homo sapiens, UniProt P08922); settings: ROS1; read-out: % Inhibition @ 100 nM
468 kinases [8] = biological target: 468 kinases (Homo sapiens, UniProt P21127); settings: CDC2L1; read-out: % Inhibition @ 100 nM
468 kinases [9] = biological target: 468 kinases (Homo sapiens, UniProt P21802); settings: FGFR2; read-out: % Inhibition @ 100 nM
468 kinases [10] = biological target: 468 kinases (Homo sapiens, UniProt P25098); settings: GRK2; read-out: % Inhibition @ 100 nM
468 kinases [11] = biological target: 468 kinases (Homo sapiens, UniProt P31751); settings: AKT2; read-out: % Inhibition @ 100 nM
468 kinases [12] = biological target: 468 kinases (Homo sapiens, UniProt P46734); settings: MEK3; read-out: % Inhibition @ 100 nM
468 kinases [13] = biological target: 468 kinases (Homo sapiens, UniProt P49840); settings: GSK3A; read-out: % Inhibition @ 100 nM
468 kinases [14] = biological target: 468 kinases (Homo sapiens, UniProt P54760); settings: EPHB4; read-out: % Inhibition @ 100 nM
468 kinases [15] = biological target: 468 kinases (Homo sapiens, UniProt P78356); settings: PIP5K2B; read-out: % Inhibition @ 100 nM
468 kinases [16] = biological target: 468 kinases (Homo sapiens, UniProt P80192); settings: MLK1; read-out: % Inhibition @ 100 nM
468 kinases [17] = biological target: 468 kinases (Homo sapiens, UniProt Q00537); settings: PCTK2; read-out: % Inhibition @ 100 nM
468 kinases [18] = biological target: 468 kinases (Homo sapiens, UniProt Q04759); settings: PRKCQ; read-out: % Inhibition @ 100 nM
468 kinases [19] = biological target: 468 kinases (Homo sapiens, UniProt Q04771); settings: ACVR1; read-out: % Inhibition @ 100 nM
468 kinases [20] = biological target: 468 kinases (Homo sapiens, UniProt Q8IW41); settings: MAPKAPK5; read-out: % Inhibition @ 100 nM
468 kinases [21] = biological target: 468 kinases (Homo sapiens, UniProt Q96BR1); settings: SGK3; read-out: % Inhibition @ 100 nM
468 kinases [22] = biological target: 468 kinases (Homo sapiens, UniProt Q99683); settings: ASK1; read-out: % Inhibition @ 100 nM
468 kinases [23] = biological target: 468 kinases (Homo sapiens, UniProt Q9BUB5); settings: MKNK1; read-out: % Inhibition @ 100 nM
468 kinases [24] = biological target: 468 kinases (Homo sapiens, UniProt Q9H2G2); settings: SLK; read-out: % Inhibition @ 100 nM
468 kinases [25] = biological target: 468 kinases (Homo sapiens, UniProt Q9HBH9); settings: MKNK2; read-out: % Inhibition @ 100 nM
468 kinases [26] = biological target: 468 kinases (Homo sapiens, UniProt Q9NRH2); settings: SNRK; read-out: % Inhibition @ 100 nM
468 kinases [27] = biological target: 468 kinases (Homo sapiens, UniProt Q9NRP7); settings: STK36; read-out: % Inhibition @ 100 nM
468 kinases [28] = biological target: 468 kinases (Homo sapiens, UniProt Q9NWZ3); settings: TRAK4; read-out: % Inhibition @ 100 nM
468 kinases [29] = biological target: 468 kinases (Homo sapiens, UniProt Q9P2K8, S808G); settings: GCN2(Kin.Dom.2,S808G); read-out: % Inhibition @ 100 nM
468 kinases [30] = biological target: 468 kinases (Homo sapiens, UniProt Q9UEE5); settings: DRAK1; read-out: % Inhibition @ 100 nM
468 kinases [31] = biological target: 468 kinases (Homo sapiens, UniProt Q9UKE5); settings: TNIK; read-out: % Inhibition @ 100 nM
468 kinases [32] = biological target: 468 kinases (Homo sapiens, UniProt Q9UL54); settings: TAOK2; read-out: % Inhibition @ 100 nM
468 kinases [33] = biological target: 468 kinases (Homo sapiens, UniProt Q9Y2K2); settings: QSK; read-out: % Inhibition @ 100 nM

**Q.** Which inhibition at 0.1 µM (468 kinases [1]) does the source give for CCN(CC)CCNC(=O)c1c(C)[nH]c(/C=C2\C(=O)Nc3ccc(CCO)cc32)c1C [Compound No. 10, (Z)—N-(2-(Diethylamino)ethyl)-5-((5-(2-hydroxyethyl)-2-oxoindolin-3-ylidene)methyl)-2,4-dimethyl-1H-pyrrole-3-carboxamide] here?
**A.** 0%

**Q.** And the inhibition at 0.1 µM (468 kinases [2])?
**A.** 93.9%

**Q.** And the inhibition at 0.1 µM (468 kinases [3])?
**A.** 32%

**Q.** What about the inhibition at 0.1 µM (468 kinases [4]) of the same compound?
**A.** 0%

**Q.** And the inhibition at 0.1 µM (468 kinases [5])?
**A.** 83%

**Q.** What about the inhibition at 0.1 µM (468 kinases [6]; ABL1 (F317I)-nonphosphorylated) of the same compound?
**A.** 8%

**Q.** What about the inhibition at 0.1 µM (468 kinases [6]; ABL1 (F317I)-phosphorylated) of the same compound?
**A.** 0%

**Q.** What about the inhibition at 0.1 µM (468 kinases [7]) of the same compound?
**A.** 15%

**Q.** What about the inhibition at 0.1 µM (468 kinases [8]) of the same compound?
**A.** 0%

**Q.** And the inhibition at 0.1 µM (468 kinases [9])?
**A.** 37%

**Q.** What about the inhibition at 0.1 µM (468 kinases [10]) of the same compound?
**A.** 0%

**Q.** And the inhibition at 0.1 µM (468 kinases [11])?
**A.** 4%

**Q.** What about the inhibition at 0.1 µM (468 kinases [12]) of the same compound?
**A.** 9%

**Q.** What about the inhibition at 0.1 µM (468 kinases [13]) of the same compound?
**A.** 3%

**Q.** And the inhibition at 0.1 µM (468 kinases [14])?
**A.** 3%

**Q.** And the inhibition at 0.1 µM (468 kinases [15])?
**A.** 91.7%

**Q.** What about the inhibition at 0.1 µM (468 kinases [16]) of the same compound?
**A.** 1%

**Q.** And the inhibition at 0.1 µM (468 kinases [17])?
**A.** 0%

**Q.** And the inhibition at 0.1 µM (468 kinases [18])?
**A.** 0%

**Q.** What about the inhibition at 0.1 µM (468 kinases [19]) of the same compound?
**A.** 0%

**Q.** And the inhibition at 0.1 µM (468 kinases [20])?
**A.** 0%

**Q.** What about the inhibition at 0.1 µM (468 kinases [21]) of the same compound?
**A.** 0%

**Q.** And the inhibition at 0.1 µM (468 kinases [22])?
**A.** 0%

**Q.** And the inhibition at 0.1 µM (468 kinases [23])?
**A.** 3%

**Q.** And the inhibition at 0.1 µM (468 kinases [24])?
**A.** 59%

**Q.** And the inhibition at 0.1 µM (468 kinases [25])?
**A.** 0%

**Q.** And the inhibition at 0.1 µM (468 kinases [26])?
**A.** 12%

**Q.** And the inhibition at 0.1 µM (468 kinases [27])?
**A.** 0%

**Q.** What about the inhibition at 0.1 µM (468 kinases [28]) of the same compound?
**A.** 68%

**Q.** And the inhibition at 0.1 µM (468 kinases [29])?
**A.** 28%

**Q.** And the inhibition at 0.1 µM (468 kinases [30])?
**A.** 71%

**Q.** What about the inhibition at 0.1 µM (468 kinases [31]) of the same compound?
**A.** 86%

**Q.** What about the inhibition at 0.1 µM (468 kinases [32]) of the same compound?
**A.** 18%

**Q.** What about the inhibition at 0.1 µM (468 kinases [33]) of the same compound?
**A.** 0%

**Q.** Which inhibition at 0.1 µM (468 kinases [1]) does the source give for CCN(CC)CCNC(=O)c1c(C)[nH]c(/C=C2\C(=O)Nc3ccc(CCC(N)=O)cc32)c1C [Compound No. 16, (Z)-5-((5-(3-Amino-3-oxopropyl)-2-oxoindolin-3-ylidene)methyl)-N-(2-(diethylamino)ethyl)-2,4-dimethyl-1H-pyrrole-3-carboxamide] here?
**A.** 28%

**Q.** What about the inhibition at 0.1 µM (468 kinases [2]) of the same compound?
**A.** 100%

**Q.** And the inhibition at 0.1 µM (468 kinases [3])?
**A.** 32%

**Q.** What about the inhibition at 0.1 µM (468 kinases [4]) of the same compound?
**A.** 20%

**Q.** And the inhibition at 0.1 µM (468 kinases [5])?
**A.** 93.2%

**Q.** What about the inhibition at 0.1 µM (468 kinases [6]; ABL1 (F317I)-phosphorylated) of the same compound?
**A.** 31%

**Q.** And the inhibition at 0.1 µM (468 kinases [7])?
**A.** 0%

**Q.** What about the inhibition at 0.1 µM (468 kinases [8]) of the same compound?
**A.** 7%

**Q.** And the inhibition at 0.1 µM (468 kinases [9])?
**A.** 1%

**Q.** What about the inhibition at 0.1 µM (468 kinases [10]) of the same compound?
**A.** 48%

**Q.** And the inhibition at 0.1 µM (468 kinases [11])?
**A.** 0%

**Q.** And the inhibition at 0.1 µM (468 kinases [12])?
**A.** 35%

**Q.** What about the inhibition at 0.1 µM (468 kinases [13]) of the same compound?
**A.** 10%

**Q.** What about the inhibition at 0.1 µM (468 kinases [14]) of the same compound?
**A.** 0%

**Q.** What about the inhibition at 0.1 µM (468 kinases [15]) of the same compound?
**A.** 86%

**Q.** What about the inhibition at 0.1 µM (468 kinases [16]) of the same compound?
**A.** 5%

**Q.** What about the inhibition at 0.1 µM (468 kinases [17]) of the same compound?
**A.** 17%

**Q.** And the inhibition at 0.1 µM (468 kinases [18])?
**A.** 0%

**Q.** And the inhibition at 0.1 µM (468 kinases [19])?
**A.** 18%

**Q.** What about the inhibition at 0.1 µM (468 kinases [20]) of the same compound?
**A.** 28%

**Q.** And the inhibition at 0.1 µM (468 kinases [21])?
**A.** 26%

**Q.** And the inhibition at 0.1 µM (468 kinases [22])?
**A.** 20%

**Q.** And the inhibition at 0.1 µM (468 kinases [23])?
**A.** 31%

**Q.** And the inhibition at 0.1 µM (468 kinases [24])?
**A.** 37%

**Q.** What about the inhibition at 0.1 µM (468 kinases [25]) of the same compound?
**A.** 52%

**Q.** What about the inhibition at 0.1 µM (468 kinases [26]) of the same compound?
**A.** 10%

**Q.** What about the inhibition at 0.1 µM (468 kinases [27]) of the same compound?
**A.** 0%

**Q.** And the inhibition at 0.1 µM (468 kinases [28])?
**A.** 68%

**Q.** What about the inhibition at 0.1 µM (468 kinases [29]) of the same compound?
**A.** 0%

**Q.** What about the inhibition at 0.1 µM (468 kinases [30]) of the same compound?
**A.** 78%

**Q.** And the inhibition at 0.1 µM (468 kinases [31])?
**A.** 55%

**Q.** And the inhibition at 0.1 µM (468 kinases [32])?
**A.** 21%

**Q.** What about the inhibition at 0.1 µM (468 kinases [33]) of the same compound?
**A.** 0%
